{"source": "ChEMBL document CHEMBL3879896"}
{"test_system": "not listed separately", "assay": "Cytotoxicity against mouse embryonic stem cells", "type": "cell-based", "conditions": "embryonic stem cell", "units": {"Activity": "µM"}}
{"compound": "O=C(c1ccc2[nH]ccc2c1)N1CCN(C2c3ccccc3-c3ccccc32)CC1", "Activity": "46 to 52"}
{"compound": "CCCC(=O)C1(c2ccccc2)CCN(C(=O)c2ccc3[nH]ccc3c2)CC1", "Activity": "46 to 50"}
{"compound": "CC(C)=CCC/C(C)=C/CNC(=O)CCc1c[nH]c2ccccc12", "Activity": "11 to 90"}
{"target": "T1, Enoyl-[acyl-carrier-protein] reductase [NADH] (Mycobacterium tuberculosis) (UniProt P9WGR1)", "T1 sequence (whole entry)": "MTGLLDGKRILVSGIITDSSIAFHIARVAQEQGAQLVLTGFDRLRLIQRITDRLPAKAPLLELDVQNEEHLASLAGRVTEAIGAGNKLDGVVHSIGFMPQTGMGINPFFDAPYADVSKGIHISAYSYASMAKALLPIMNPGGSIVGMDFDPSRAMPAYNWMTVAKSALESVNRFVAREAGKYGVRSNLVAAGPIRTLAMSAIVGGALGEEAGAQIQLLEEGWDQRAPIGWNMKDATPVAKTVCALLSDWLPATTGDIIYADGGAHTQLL", "assay": "Inhibition of Mycobacterium tuberculosis InhA using octenoyl-CoA as substrate assessed as decrease in NADH consumption at 40 uM measured for 10 mins relative to control", "conditions": "not given", "units": {"inhibition": "%"}}
{"compound": "COc1ccc([N+](=O)[O-])c(-c2cnn(-c3nccc(C(F)(F)F)n3)c2)c1", "inhibition": 17}
{"compound": "O=[N+]([O-])c1ccccc1-c1cnn(-c2nccc(C(F)(F)F)n2)c1", "inhibition": 14}
{"compound": "FC(F)(F)c1ccnc(-n2cc(-c3nc4ccccc4[nH]3)cn2)n1", "inhibition": 36}
{"compound": "O=C(CCCc1c[nH]c2ccccc12)NCc1ccc2c(c1)OCO2", "inhibition": 37}
{"compound": "O=C(Cc1ccccc1F)NCCc1ccccc1", "inhibition": 45}
{"compound": "O=C(c1ccc(F)cc1)C1CCN(C(=O)c2ccc3[nH]ccc3c2)CC1", "inhibition": 84}
{"compound": "CC(C)=CCC/C(C)=C/CNC(=O)CCCc1c[nH]c2ccccc12", "inhibition": 51}
{"compound": "FC(F)(F)c1ccnc(-n2cc(-c3ccncn3)cn2)n1", "inhibition": 36}
{"compound": "Cc1c(C)c(C)c(C(=O)C2CCN(C(=O)c3ccc4[nH]ccc4c3)CC2)c(C)c1C", "inhibition": 78}
{"compound": "COc1ccc(CCNC(=O)Cc2ccccc2F)cc1", "inhibition": 63}
{"compound": "O=C(c1ccc(-c2ccccc2)cc1)N1CCN(Cc2ccccc2)CC1", "inhibition": 27}
{"compound": "CS(=O)(=O)c1ccc(-c2cnn(-c3nccc(C(F)(F)F)n3)c2)c([N+](=O)[O-])c1", "inhibition": 10}
{"compound": "FC(F)(F)c1ccnc(-n2cc(-c3ccc4ccccc4n3)cn2)n1", "inhibition": 16}
{"compound": "O=C(c1ccc2[nH]ccc2c1)N1CCc2ccccc2C1", "inhibition": 86}
{"compound": "CC(C)C1C2CCC(NC(=O)CCc3c[nH]c4ccccc34)C1C2", "note": "(stereo unspecified)", "inhibition": 28}
{"compound": "FC(F)(F)c1ccnc(-n2cc(-c3cccnc3)cn2)n1", "inhibition": 36}
{"compound": "FC(F)(F)c1ccnc(-n2cc(-c3cnc4ccccc4n3)cn2)n1", "inhibition": 36}
{"compound": "O=C(c1ccc2[nH]ccc2c1)N1CCN(c2ccccn2)CC1", "inhibition": 36}
{"compound": "CN(CCc1ccccc1)C(=O)c1ccc(-c2ccccc2)cc1", "inhibition": 32}
{"compound": "O=C(c1ccc2[nH]ccc2c1)N1CCN(c2ccc(F)cc2)CC1", "inhibition": 53}
{"compound": "CN(Cc1ccccc1)C(=O)c1ccc(-c2ccccc2)cc1", "inhibition": 44}
{"compound": "O=C(c1ccc2[nH]ccc2c1)N1CCN(C(c2ccccc2)c2ccccc2)CC1", "inhibition": 106}
{"compound": "COc1cc(CCNC(=O)CCCc2c[nH]c3ccccc23)cc(OC)c1", "inhibition": 21}
{"compound": "CC(C)C1C2CCC(NC(=O)CCCc3c[nH]c4ccccc34)C1C2", "note": "(stereo unspecified)", "inhibition": 34}
{"compound": "FC(F)(F)c1ccnc(-n2cc(-c3ccc(Cl)cc3)cn2)n1", "inhibition": 8}
{"compound": "O=C(c1ccc(-c2ccccc2)cc1)N1CCc2ccccc2C1", "inhibition": 27}
{"compound": "O=C(Cc1ccccc1F)NCCC1=CCCCC1", "inhibition": 56}
{"compound": "CC1CN(C(=O)c2ccc3[nH]ccc3c2)CC(C)O1", "note": "(stereo unspecified)", "inhibition": 47}
{"compound": "O=C(Cc1ccccc1F)NCCO", "inhibition": 34}
{"compound": "O=[N+]([O-])c1cc(Cl)ccc1-c1cnn(-c2nccc(C(F)(F)F)n2)c1", "inhibition": 82}
{"compound": "COc1ccc(-c2cnn(-c3nccc(C(F)(F)F)n3)c2)cc1", "inhibition": 4}
{"compound": "O=C(Cc1ccccc1F)NCc1cccc(Cl)c1", "inhibition": 75}
{"compound": "O=C(Nc1ccc2ccccc2n1)c1ccc2[nH]ccc2c1", "inhibition": 16}
{"compound": "O=C(c1ccc2[nH]ccc2c1)N1CCN(Cc2ccc3c(c2)OCO3)CC1", "inhibition": 51}
{"compound": "O=C(Cc1ccccc1F)NCCc1c[nH]c2ccccc12", "inhibition": 47}
{"compound": "CC(C)=CCC/C(C)=C/CNC(=O)CCc1c[nH]c2ccccc12", "inhibition": 73}
{"compound": "O=C(Cc1ccccc1F)NCCc1cccc(Cl)c1", "inhibition": 84}
{"compound": "O=C(c1ccc2[nH]ccc2c1)N1CCN(Cc2ccccc2)CC1", "inhibition": 62}
{"compound": "FC(F)(F)c1ccnc(-n2cc(-c3cnccn3)cn2)n1", "inhibition": 9}
{"compound": "COc1cc2c(cc1OC)CN(C(=O)c1ccc3[nH]ccc3c1)CC2", "inhibition": 86}
{"compound": "COc1ccccc1N1CCN(C(=O)c2ccc3[nH]ccc3c2)CC1", "inhibition": 78}
{"compound": "FC(F)(F)c1ccnc(-n2cc(-c3ccnc4ccccc34)cn2)n1", "inhibition": 9}
{"compound": "O=C(Cc1ccccc1F)NCCC(c1ccccc1)c1ccccc1", "inhibition": 63}
{"compound": "O=C(CCCc1c[nH]c2ccccc12)Nc1ccc(N2CCCC2)cc1", "inhibition": 28}
{"compound": "O=C(c1cccnc1)c1ccc2[nH]ccc2c1", "inhibition": 36}
{"compound": "O=C(c1ccc2[nH]ccc2c1)N1CCN(c2ccccc2)CC1", "inhibition": 73}
{"compound": "CN(Cc1ccco1)C(=O)c1ccc(-c2ccccc2)cc1", "inhibition": 29}
{"test_system": "not listed separately", "assay": "Cytotoxicity against human kidney cells", "type": "cell-based", "conditions": "not given", "units": {"Activity": "µM"}}
{"compound": "O=C(c1ccc2[nH]ccc2c1)N1CCN(C2c3ccccc3-c3ccccc32)CC1", "Activity": "35 to 44"}
{"compound": "CCCC(=O)C1(c2ccccc2)CCN(C(=O)c2ccc3[nH]ccc3c2)CC1", "Activity": "23 to 48"}
{"compound": "CC(C)=CCC/C(C)=C/CNC(=O)CCc1c[nH]c2ccccc12", "Activity": "41 to 62"}
{"test_system": "not listed separately", "assay": "Cytotoxicity against human lung cells", "type": "cell-based", "conditions": "not given", "units": {"Activity": "µM"}}
{"compound": "O=C(c1ccc2[nH]ccc2c1)N1CCN(C2c3ccccc3-c3ccccc32)CC1", "Activity": "24 to 48"}
{"compound": "CCCC(=O)C1(c2ccccc2)CCN(C(=O)c2ccc3[nH]ccc3c2)CC1", "Activity": "33 to 50"}
{"compound": "CC(C)=CCC/C(C)=C/CNC(=O)CCc1c[nH]c2ccccc12", "Activity": "11 to 48"}
